Results published in patent US6444617B1, “Fused-heterocycle dicarboxylic acid diamide derivatives or salts thereof, herbicide and usage thereof” (Nihon Nohyaku Co., Ltd., priority 1998, dated 2002).

Experiments:
Type in all cases: in vivo
[1] = system: barnyard grass (Echinochloa crus-galli Beauv.), Ec; experiment: Test Example 3: herbicidal effect on upland weeds before emergence; details: dosage 5 kg/ha
How it was run: (§1)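 Test compound, formulated as a liquid at a fixed concentration, is sprayed before weed emergence. Two weeks later, kill rate is derived and herbicidal activity is rated.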

[2] = system: bird's eye speedwell (Veronica persica Poir.), Vp; experiment: as above; details: dosage 5 kg/ha
How it was run: as §1

[3] = system: cocklebur (Xanthium strumarium L.), Xs; experiment: as above; details: dosage 5 kg/ha
How it was run: as §1

[4] = system: velvetleaf (Abutilon theophtasti L.), At; experiment: as above; details: dosage 5 kg/ha
How it was run: as §1

[5] = system: forxtail grass (Alopecurus aequalis var. amurensis Ohwi), Am; experiment: as above; details: foxtail grass, dosage 5 kg/ha
How it was run: as §1

[6] = system: cleavers (Galium aparine L.), Ga; experiment: as above; details: dosage 5 kg/ha
How it was run: as §1

[7] = system: barnyard grass (Echinochloa crus-galli Beauv.), Ec; experiment: Test Example 4: herbicidal effect on upland weeds after emergence; details: dosage 5 kg/ha; sprayed after emergence; judged 14 days after treatment
How it was run: (§2)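 Post-emergence foliar spray, compound at prescribed concentration, applied at defined leaf stages; weeds plus soybean/wheat grown in soil vats. Read-out: weed-killing rate and crop injury, 14 d post-treatment.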

[8] = system: bird's eye speedwell (Veronica persica Poir.), Vp; experiment: as above; details: dosage 5 kg/ha; sprayed after emergence; judged 14 days after treatment
How it was run: as §2

[9] = system: cocklebur (Xanthium strumarium L.), Xs; experiment: as above; details: dosage 5 kg/ha; sprayed after emergence; judged 14 days after treatment
How it was run: as §2

[10] = system: velvetleaf (Abutilon theophtasti L.), At; experiment: as above; details: dosage 5 kg/ha; sprayed after emergence; judged 14 days after treatment
How it was run: as §2

[11] = system: forxtail grass (Alopecurus aequalis var. amurensis Ohwi), Am; experiment: as above; details: dosage 5 kg/ha; sprayed after emergence; judged 14 days after treatment
How it was run: as §2

[12] = system: cleavers (Galium aparine L.), Ga; experiment: as above; details: dosage 5 kg/ha; sprayed after emergence; judged 14 days after treatment
How it was run: as §2

[13] = system: wheat; experiment: Test Example 4: phytotoxicity to upland crop plants, treatment after emergence; details: dosage 5 kg/ha, sprayed after emergence, judged 14 days after treatment
How it was run: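 Seeds sown in soil and covered. Plants raised to specified leaf stages. Agent with test compound at a prescribed concentration sprayed. Herbicidal effect and crop damage scored after 14 days as weed-killing rate.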

[14] = system: soybean plant; experiment: as above; details: dosage 5 kg/ha, sprayed after emergence, judged 14 days after treatment
How it was run: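 Weeds, soybean and wheat were sown in soil-filled vats, covered with soil and grown to set leaf stages before a post-emergence spray of an agent containing the compound at a prescribed concentration. Weed-killing rate and crop phytotoxicity were assessed 14 days after treatment.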

[15] = system: bulrush (Scirpus juncoides Roxb.); experiment: Test Example 1: herbicidal effect on paddy field weeds before emergence; details: Dosage 5 kg/ha
How it was run: (§3)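 Seeds of both weeds, still ungerminated, in soil pots held under paddy conditions received a set dose of test solution as soil treatment. After twenty-one days, control relative to untreated pots was calculated and rated on a scoring scale.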

[16] = system: barnyard grass (Echinochloa crus-galli Beauv.); experiment: as above; details: Dosage 5 kg/ha
How it was run: as §3

[17] = system: soybean plant (So); experiment: Test Example 3: phytotoxicity to upland crop plants, treatment before emergence; details: dosage 5 kg/ha
How it was run: (§4)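 Pre-emergence spray, test compound at prescribed conc. in liquid formulation; crop injury (soybean, wheat) read at day 14, scored by criterion.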

[18] = system: wheat (Wh); experiment: as above; details: dosage 5 kg/ha
How it was run: as §4

[19] = system: bulrush (Scirpus juncoides Roxb.); experiment: Test Example 2: herbicidal effect on paddy field weeds after emergence; details: Dosage 5 kg/ha; one-leaved stage; 21 days after treatment
How it was run: (§5)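 Weeds were sown in 1/10000 are pots of soil flooded to paddy conditions and grown to the one-leaf stage, then the soil was treated with a solution of compound at a predetermined dosage.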

[20] = system: monochoria (Monochoria vaginalis Presl); experiment: as above; details: Dosage 5 kg/ha; one-leaved stage; 21 days after treatment
How it was run: as §5

[21] = system: barnyard grass (Echinochloa crus-galli Beauv.); experiment: as above; details: Dosage 5 kg/ha; one-leaved stage; 21 days after treatment
How it was run: as §5

| SMILES | Herbicidal effect Ec [1] | Herbicidal effect Vp [2] | Herbicidal effect Xs [3] | Herbicidal effect At [4] | Herbicidal effect Am [5] | Herbicidal effect Ga [6] | Herbicidal effect Ec [7] | Herbicidal effect Vp [8] | Herbicidal effect Xs [9] | Herbicidal effect At [10] | Herbicidal effect Am [11] | Herbicidal effect Ga [12] | Phytotoxicity Wh [13] | Phytotoxicity So [14] | Pre-emergence treatment Bulrush (herbicidal effect) [15] | Pre-emergence treatment Barnyard grass (herbicidal effect) [16] | Phytotoxicity So [17] | Phytotoxicity Wh [18] | Post-emergence treatment Bulrush (herbicidal effect) [19] | Post-emergence treatment Monochoria (herbicidal effect) [20] | further results |
| --- | --- | --- | --- | --- | --- | --- | --- | --- | --- | --- | --- | --- | --- | --- | --- | --- | --- | --- | --- | --- | --- |
| CCCNC(=O)c1nc2c(cc1C(=O)Nc1c(CC)ccc(Cl)c1CC)CCO2 [compound 919] | 5 (Weed-killing rate is 100%.) | 5 (Weed-killing rate is 100%.) | 5 (Weed-killing rate is 100%.) | 5 (Weed-killing rate is 100%.) | 5 (Weed-killing rate is 100%.) | 5 (Weed-killing rate is 100%.) | 5 (Weed-killing rate is 100%.) | 5 (Weed-killing rate is 100%.) | 5 (Weed-killing rate is 100%.) | 5 (Weed-killing rate is 100%.) | 5 (Weed-killing rate is 100%.) | 5 (Weed-killing rate is 100%.) | 5 (Crop-killing rate is 100%.) | 5 (Crop-killing rate is 100%.) | 5 (Weed-killing rate is 100%.) | 5 (Weed-killing rate is 100%.) | 5 (Crop-killing rate is 100%.) | 5 (Crop-killing rate is 100%.) | 5 (Weed-killing rate is 100%.) | 5 (Weed-killing rate is 100%.) | Post-emergence treatment Barnyard grass (herbicidal effect) [21]: 5 (Weed-killing rate is 100%.) |
| CCCNC(=O)c1nc2onc(C)c2cc1C(=O)Nc1c(CC)ccc(Cl)c1CC [compound 1064] | 5 (Weed-killing rate is 100%.) | 5 (Weed-killing rate is 100%.) | 5 (Weed-killing rate is 100%.) | 5 (Weed-killing rate is 100%.) | 5 (Weed-killing rate is 100%.) | 5 (Weed-killing rate is 100%.) | 5 (Weed-killing rate is 100%.) | 5 (Weed-killing rate is 100%.) | 5 (Weed-killing rate is 100%.) | 5 (Weed-killing rate is 100%.) | 5 (Weed-killing rate is 100%.) | 5 (Weed-killing rate is 100%.) | 5 (Crop-killing rate is 100%.) | 4 (Crop-killing rate is 90-99%.) | 5 (Weed-killing rate is 100%.) | 5 (Weed-killing rate is 100%.) | 4 (Crop-killing rate is 90-99%.) | 5 (Crop-killing rate is 100%.) | 5 (Weed-killing rate is 100%.) | 5 (Weed-killing rate is 100%.) | Post-emergence treatment Barnyard grass (herbicidal effect) [21]: 5 (Weed-killing rate is 100%.) |
| Cc1c(Cl)cccc1NC(=O)c1cc2c(C)noc2nc1C(=O)NC1CCCC1 [compound 1085] | 5 (Weed-killing rate is 100%.) | 5 (Weed-killing rate is 100%.) | 5 (Weed-killing rate is 100%.) | 5 (Weed-killing rate is 100%.) | 5 (Weed-killing rate is 100%.) | 5 (Weed-killing rate is 100%.) | 5 (Weed-killing rate is 100%.) | 5 (Weed-killing rate is 100%.) | 5 (Weed-killing rate is 100%.) | 5 (Weed-killing rate is 100%.) | 5 (Weed-killing rate is 100%.) | 4 (Weed-killing rate is 90-99%.) | 5 (Crop-killing rate is 100%.) | 4 (Crop-killing rate is 90-99%.) | 5 (Weed-killing rate is 100%.) | 5 (Weed-killing rate is 100%.) | 4 (Crop-killing rate is 90-99%.) | 5 (Crop-killing rate is 100%.) | 5 (Weed-killing rate is 100%.) | 5 (Weed-killing rate is 100%.) | Post-emergence treatment Barnyard grass (herbicidal effect) [21]: 5 (Weed-killing rate is 100%.) |
| CCNC(=O)c1nc2c(cnn2C)cc1C(=O)Nc1c(CC)ccc(Cl)c1CC [compound 1087] | 5 (Weed-killing rate is 100%.) | 5 (Weed-killing rate is 100%.) | 5 (Weed-killing rate is 100%.) | 5 (Weed-killing rate is 100%.) | 5 (Weed-killing rate is 100%.) | 5 (Weed-killing rate is 100%.) | 5 (Weed-killing rate is 100%.) | 5 (Weed-killing rate is 100%.) | 5 (Weed-killing rate is 100%.) | 5 (Weed-killing rate is 100%.) | 5 (Weed-killing rate is 100%.) | 5 (Weed-killing rate is 100%.) | 5 (Crop-killing rate is 100%.) | 4 (Crop-killing rate is 90-99%.) | 5 (Weed-killing rate is 100%.) | 5 (Weed-killing rate is 100%.) | 5 (Crop-killing rate is 100%.) | 5 (Crop-killing rate is 100%.) | 5 (Weed-killing rate is 100%.) | 5 (Weed-killing rate is 100%.) | Post-emergence treatment Barnyard grass (herbicidal effect) [21]: 5 (Weed-killing rate is 100%.) |
| CCCNC(=O)c1nc2c(cnn2C)cc1C(=O)Nc1c(CC)ccc(Cl)c1CC [compound 1088] | 5 (Weed-killing rate is 100%.) | 5 (Weed-killing rate is 100%.) | 5 (Weed-killing rate is 100%.) | 5 (Weed-killing rate is 100%.) | 5 (Weed-killing rate is 100%.) | 5 (Weed-killing rate is 100%.) | 5 (Weed-killing rate is 100%.) | 5 (Weed-killing rate is 100%.) | 5 (Weed-killing rate is 100%.) | 5 (Weed-killing rate is 100%.) | 5 (Weed-killing rate is 100%.) | 5 (Weed-killing rate is 100%.) | 5 (Crop-killing rate is 100%.) | 5 (Crop-killing rate is 100%.) | 5 (Weed-killing rate is 100%.) | 5 (Weed-killing rate is 100%.) | 5 (Crop-killing rate is 100%.) | 5 (Crop-killing rate is 100%.) | 5 (Weed-killing rate is 100%.) | 5 (Weed-killing rate is 100%.) | Post-emergence treatment Barnyard grass (herbicidal effect) [21]: 5 (Weed-killing rate is 100%.) |
